Laboratory results taken from patent US4820834A, “Benzodiazepine analogs” (priority 1987, dated 1989).
Read-outs that look alike come from different tables or passages of the source.

Tests used:
CCK receptor (pancreas) = target: T1, CCK receptor (pancreas) (Rattus norvegicus, UniProt P30551); assay: CCK Receptor Binding (Pancreas): inhibition of ^125 I-CCK-33 binding; set-up: species or system Male Sprague-Dawley rats; conditions: rat pancreas membranes, ^125 I-CCK-33, 37° C., 30 minutes
T1 construct: The whole pancreas was dissected free of fat tissue and was homogenized; from tissue; host or cells: rat pancreas membranes (Sprague-Dawley)
T1 sequence (P30551 1-444): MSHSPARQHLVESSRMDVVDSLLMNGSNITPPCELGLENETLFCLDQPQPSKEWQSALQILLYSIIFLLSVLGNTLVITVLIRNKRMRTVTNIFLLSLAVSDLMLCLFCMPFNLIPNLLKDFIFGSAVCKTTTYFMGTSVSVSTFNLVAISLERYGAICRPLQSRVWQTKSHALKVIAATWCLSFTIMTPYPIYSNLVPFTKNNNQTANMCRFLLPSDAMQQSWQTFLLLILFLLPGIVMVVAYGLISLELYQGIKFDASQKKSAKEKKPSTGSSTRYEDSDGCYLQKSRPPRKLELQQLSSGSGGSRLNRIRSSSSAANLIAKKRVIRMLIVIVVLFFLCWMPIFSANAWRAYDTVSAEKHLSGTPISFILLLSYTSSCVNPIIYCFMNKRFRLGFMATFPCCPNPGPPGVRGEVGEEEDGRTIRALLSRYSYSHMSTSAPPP
How it was run: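 Rat (male Sprague-Dawley) pancreatic membranes in 50 mM Tris HCl pH 7.7 with DTT, bacitracin, PMSF and o-phenanthroline; ^125I-Bolton Hunter-labelled CCK-33 as radioligand. Incubation 30 min at 37° C, separation by centrifugation, pellet gamma-counted; Scatchard analysis by diluting ^125I-CCK-33 with increasing CCK-33.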

[1] = target: T2, CCK receptor (brain, cerebral cortex) (Cavia porcellus, UniProt H0VZC5); assay: biochemical; format: binding, Male Hartley guinea pigs; conditions: guinea pig cerebral cortex, ^125 I-CCK-33, 25° C., 2 hours
T2 construct: Cerebral cortex was dissected and used as a receptor source; from tissue; host or cells: guinea pig cerebral cortex membranes (male Hartley)
T2 sequence (H0VZC5 1-426): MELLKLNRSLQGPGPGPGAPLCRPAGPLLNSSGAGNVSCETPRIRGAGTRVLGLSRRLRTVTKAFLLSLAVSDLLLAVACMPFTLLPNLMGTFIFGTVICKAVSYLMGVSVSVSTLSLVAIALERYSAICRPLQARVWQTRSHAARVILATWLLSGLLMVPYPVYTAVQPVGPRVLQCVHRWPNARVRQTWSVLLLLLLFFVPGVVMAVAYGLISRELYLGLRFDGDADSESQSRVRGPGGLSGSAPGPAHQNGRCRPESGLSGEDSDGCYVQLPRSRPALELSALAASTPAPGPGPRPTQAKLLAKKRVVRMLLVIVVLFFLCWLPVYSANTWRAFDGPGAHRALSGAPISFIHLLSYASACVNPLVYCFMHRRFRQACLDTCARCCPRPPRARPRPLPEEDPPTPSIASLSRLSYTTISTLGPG
How it was run: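 Guinea pig cerebral cortex homogenate as receptor source, with radiolabeled CCK-33 in HEPES buffer containing MgCl2, bacitracin, EGTA and 0.4% BSA. Incubation 2 h at 25°C; bound ligand pelleted by centrifugation and gamma-counted.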

[2] = target: T3, Gastrin receptor (gastric glands) (Cavia porcellus, UniProt H0VZC5); assay: Gastrin Receptor Binding in Guinea Pig Gastric Glands; set-up: species or system guinea pig (male Hartley); conditions: 25° C., 30 minutes
T3 construct: The washed guinea pig gastric glands prepared as above were resuspended; from tissue; host or cells: guinea pig gastric mucosal glands (male Hartley)
T3 sequence (H0VZC5 1-426): T2 sequence (H0VZC5 1-426)

[3] = read-out: IC50 ^125 I-CCK Pancreas
[4] = IC50 ^125 I-Gastrin Gastric Glands
[5] = read-out: IC50 ^125 I-CCK Brain
[6] = ^125 I-gastrin, read-out: IC50 ^125 I-Gastrin Gastric Glands

SMILES | IC50 (CCK receptor (pancreas); [3]) [nM] | IC50 ([1]; IC50 ^125 I-CCK Brain) [nM] | IC50 [2, 4] [nM] | IC50 (CCK receptor (pancreas); IC50 ^125 I-CCK Pancreas) [nM] | IC50 [1, 5] [nM] | IC50 [2, 6] [nM]
CN1C(=O)[C@H](NC(=O)Nc2cccc(Br)c2)N=C(c2ccccc2)c2ccccc21 [Example 282, (R)-N-(2,3-Dihydro-1-methyl-2-oxo-5-phenyl-1H-1,4-benzodiazepin-3-yl)-N'-(3-bromophenyl)-urea] | 840 | 3.8 | 1.6 |  |  | 
COc1cccc(NC(=O)NC2N=C(c3ccccc3)c3ccccc3N(CC(=O)N3CCCC3)C2=O)c1 (stereo not drawn) [Example 284, 1-{[3-[(((3-Methoxyphenyl)amino)carbonyl)amino]-2,3-dihydro-2-oxo-5-phenyl-1H-1,4-benzodiazepin-1-yl]acetyl}pyrrolidine] |  | 0.34 | 0.5 | 17 |  | 
CCN(CC)C(=O)CN1C(=O)C(NC(=O)Nc2cccc(OC)c2)N=C(c2ccccc2)c2ccccc21 (stereo not drawn) [Example 285, 3-{[((3-Methoxyphenyl)amino)carbonyl)amino]-N,N-diethyl-2,3-dihydro-2-oxo-5-phenyl-1H-1,4-benzodiazepin-1-acetamide] |  |  |  | > 100 | 0.22 | 0.26
CCN(CC)C(=O)CN1C(=O)C(NC(=O)Nc2ccccc2Cl)N=C(c2ccccc2)c2ccccc21 (stereo not drawn) [Example 286, 3-{[((2-Chlorophenyl)amino)carbonyl]amino}-N,N-diethyl-2,3-dihydro-2-oxo-5-phenyl-1H-1,4-benzodiazepine-1-acetamide] |  |  |  | > 100 | 3.8 | 1.5
Cc1cccc2c1NC(=O)C(NC(=O)c1cc3ccccc3[nH]1)N=C2c1ccccc1 (stereo not drawn) [Example 287, 3-N-(2,3-Dihydro-9-methyl-2-oxo-5-phenyl-1H-1,4-benzodiazeoin-3-yl)-1H-indole-2-carboxamide] |  |  |  | 0.74 | 1000 | 950
COc1cccc(NC(=O)NC2N=C(c3ccccc3)c3cccc(C)c3NC2=O)c1 (stereo not drawn) [Example 288, N-(3-Methoxyphenyl)-N'-(2,3-dihydro-9-methyl-2-oxo-5-phenyl-1H-1,4-benzodiazepin-3-yl)-urea] |  |  |  | 75 | 42 | 54
Cc1cccc2c1N(C)C(=O)C(NC(=O)c1cc3ccccc3[nH]1)N=C2c1ccccc1 (stereo not drawn) [Example 289, 3-N-(2,3-Dihydro-1,9-dimethyl-2-oxo-5-phenyl-1H-1,4-benzodiazepin-3-yl)-1H-indole-2-carboxamide] |  |  |  | 0.1 | 89 | 660
COc1cccc(NC(=O)NC2N=C(c3ccccc3)c3cccc(C)c3N(C)C2=O)c1 (stereo not drawn) [Example 290, N-(3-Methoxyphenyl)-N'-(2,3-dihydro-1,9-dimethyl-2-oxo-5-phenyl-1H-1,4-benzodiazepin-3-yl)-urea] |  |  |  | 2 | 15 | 8.7
Cc1ccc(C2=NC(NC(=O)c3cc4ccccc4[nH]3)C(=O)N(C)c3ccccc32)cc1 (stereo not drawn) [Example 291, 3-N-(2,3-Dihydro-1-methyl-2-oxo-5-(p-tolyl)-1H-1,4-benzodiazepin-3-yl)-1H-indole-2-carboxamide] |  |  |  | 0.08 | 380 | 710
COc1cccc(NC(=O)NC2N=C(c3ccc(C)cc3)c3ccccc3N(C)C2=O)c1 (stereo not drawn) [Example 292, N-(3-Methoxyphenyl)-N'-(2,3-dihydro-1-methyl-2-oxo-5-(p-tolyl)-1H-1,4-benzodiazepin-3-yl)-urea] |  |  |  | 1 | 3.5 | 11.5
Cc1ccc(NC(=O)N[C@@H]2N=C(c3ccccc3)c3ccccc3N(C)C2=O)cc1 [Example 293, (R)-N-(2,3-Dihydro-1-methyl-2-oxo-5-phenyl-1H-1,4-benzodiazepin-3-yl)-N'-(4-methylphenyl)-urea] | 3100 | 6.5 | 2.5 |  |  | 
Cc1ccc2c(c1)N(C)C(=O)C(NC(=O)c1cc3ccccc3[nH]1)N=C2c1ccccc1 (stereo not drawn) [Example 294, 3-N-(2,3-Dihydro-1,8-dimethyl-2-oxo-5-phenyl-1H-1,4-benzodiazepin-3-yl)-1H-indole-2-carboxamide] |  |  |  | 0.1 | 38 | 40
COc1cccc(NC(=O)NC2N=C(c3ccccc3)c3ccc(C)cc3N(C)C2=O)c1 (stereo not drawn) [Example 295, N-(3-Methoxyphenyl)-N'-(2,3-dihydro-1,8-dimethyl-2-oxo-5-phenyl-1H-1,4-benzodiazepin-3-yl)-urea] |  |  |  | 3 | 15 | 34
CN1C(=O)[C@H](NC(=O)Nc2cccc(Cl)c2)N=C(c2ccccc2)c2ccccc21 [Example 296, (R)-N-(2,3-Dihydro-1-methyl-2-oxo-5-phenyl-1H-1,4-benzodiazepin-3-yl)-N'-(3-chloroohenyl)-urea] | 290 | 7.5 | 2.2 |  |  | 
CN1C(=O)C(CC(=O)Nc2ccc(Cl)cc2)N=C(c2ccccc2)c2ccccc21 (stereo not drawn) [Example 297, N-(4-Chlorophenyl)-2,3-dihydro-1-methyl-2-oxo-5-phenyl-1H-1,4-benzodiazepine-3-acetamide] |  |  |  | 1800 | 3700 | 5200
